Results on 16 compounds are retold here after PubChem BioAssay (NCI).

Some test systems named below: OVCAR-5 ovarian; NCI-H226 lung; SN12C renal; SK-MEL-5 melanoma; BT-549 breast; NCI/ADR-RES ovarian; DU-145 prostate; HCT-15 colon; A549 NSCLC; TK-10 renal.
Common to all, as to assay: DTP human tumour cell line panel, 48 h

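In this assay, cells in 96-well plates receive the compound at five concentrations for 48 hours. Endpoints are linearly interpolated between the surrounding concentrations. At the TGI there is no net growth.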 Where a SMILES comes first, the peptide text is derived from it. The star is where a group is joined. Cbz = O=C(OCc1ccccc1)*; NHNH2 = NN* Some results are limits rather than exact numbers.

On to `Cc1cn(C(C)OCCN2C(=O)c3ccccc3C2=O)c(=O)[nH]c1=O` (stereo not given), for which the TGI in the assay on OVCAR-5 ovarian, with NCI-H226 lung, with SN12C renal, in the assay with SK-MEL-5 melanoma, in the assay with BT-549 breast and in the assay with NCI/ADR-RES ovarian was more than 100 µM throughout. The TGI with DU-145 prostate, in the assay on HCT-15 colon and with A549 NSCLC was more than 100 µM in each case.

Consider `O=C(N/N=C/c1ccco1)c1cc(I)cc(I)c1O`, for which the TGI was 40.9 µM in the assay with OVCAR-5 ovarian; 39.7 µM in the assay with NCI-H226 lung; 38.7 µM in the assay with SN12C renal; 34.4 µM with SK-MEL-5 melanoma; more than 50 µM with BT-549 breast; more than 50 µM in the assay with NCI/ADR-RES ovarian. The TGI in the assay on DU-145 prostate, in the assay on HCT-15 colon and in the assay on A549 NSCLC was more than 50 µM in each case.

As to `NC(=O)c1cc2ccccc2o/c1=N/O`, the TGI with NCI-H226 lung, in the assay on SN12C renal, with SK-MEL-5 melanoma, in the assay with BT-549 breast, with NCI/ADR-RES ovarian and in the assay with DU-145 prostate was more than 100 µM each time. Moreover, the TGI in the assay on HCT-15 colon, in the assay on A549 NSCLC and in the assay with TK-10 renal was more than 100 µM in each case.

Take `CC1(C)CNC(=O)C2(C=NC(C)(C)CNC(=O)C3(C=N1)CCCO3)CCCO2` (stereo not given): the TGI in the assay with SN12C renal, in the assay with SK-MEL-5 melanoma, in the assay with BT-549 breast, in the assay on NCI/ADR-RES ovarian, with DU-145 prostate and in the assay on HCT-15 colon was more than 10 µM throughout. Besides, the TGI with A549 NSCLC and in the assay with TK-10 renal was more than 10 µM each time.

`O=C1C(Cl)N(c2ccccc2[N+](=O)[O-])C1c1c[nH]c2ccccc12` (stereo not given): the TGI in the assay on OVCAR-5 ovarian is 54.8 µM; with SN12C renal it was more than 100 µM; in the assay with SK-MEL-5 melanoma it was more than 100 µM; in the assay on A549 NSCLC it was more than 100 µM; in the assay with TK-10 renal it was more than 100 µM.

Regarding `O=C1C=C(c2ccccc2)O/C1=C/C(=O)c1ccc(Cl)cc1`, the TGI in the assay with OVCAR-5 ovarian is 43.3 µM; in the assay on SN12C renal, 29.9 µM; with SK-MEL-5 melanoma, 44.2 µM; in the assay on BT-549 breast it was 30.1 µM; with NCI/ADR-RES ovarian it was 50 µM; in the assay with DU-145 prostate, more than 100 µM. Further, the total growth inhibition concentration (TGI) in the assay with HCT-15 colon was 39.5 µM; with TK-10 renal, 35.3 µM.

As for `COC(=O)CC(NC(=O)OCc1ccccc1)C(=O)NC(CC(=O)OC)C(=O)NC(CC(=O)OC)C(=O)NC(CC(=O)OC)C(=O)NC(CC(=O)OC)C(=O)NC(CC(=O)OC)C(=O)NN` (stereo not given) (Cbz-D(OMe)D(OMe)D(OMe)D(OMe)D(OMe)D(OMe)-NHNH2; configuration not given here), the total growth inhibition concentration (TGI) in the assay on OVCAR-5 ovarian, with SN12C renal, in the assay with SK-MEL-5 melanoma, in the assay on BT-549 breast, in the assay on HCT-15 colon and with TK-10 renal was more than 100 µM throughout.

On to `O=C1NC2OC(CO)C(O)C(O1)C2O` (stereo not given), for which the TGI in the assay on OVCAR-5 ovarian, with NCI-H226 lung, in the assay on SN12C renal, with SK-MEL-5 melanoma, with HCT-15 colon and in the assay on TK-10 renal was more than 100 µM each time.

`CN(C)CCn1c(=O)c2ccc(NCCCN(C)CCCNc3ccc4c(=O)n(CCN(C)C)c(=O)n5c6ccc([N+](=O)[O-])cc6c(=O)c3c45)c3c(=O)c4cc([N+](=O)[O-])ccc4n(c1=O)c23`: the concentration for total growth inhibition (TGI) with OVCAR-5 ovarian was determined as 1.1 µM; in the assay on SN12C renal, 0.165 µM; in the assay on SK-MEL-5 melanoma it was 0.311 µM; in the assay with BT-549 breast, 0.176 µM; in the assay with DU-145 prostate, 0.39 µM; in the assay on HCT-15 colon it was 0.542 µM. Moreover, the TGI in the assay on A549 NSCLC amounted to 0.308 µM; in the assay on TK-10 renal it was 1.52 µM.

Consider `CCOC(=O)C(CC#Cc1ccc(C#CCC(NC(C)=O)C(=O)OCC)cc1)NC(C)=O` (stereo not given), for which the TGI in the assay with OVCAR-5 ovarian, in the assay on NCI-H226 lung, in the assay with SN12C renal, in the assay with SK-MEL-5 melanoma, with NCI/ADR-RES ovarian and in the assay on DU-145 prostate was more than 100 µM throughout. In addition, the TGI with HCT-15 colon, with A549 NSCLC and in the assay with TK-10 renal was more than 100 µM in each case.

For the compound `CC1CC(=O)Nc2nc3ccccc3n21` (stereo not given), the TGI in the assay with OVCAR-5 ovarian, in the assay with NCI-H226 lung, in the assay on SK-MEL-5 melanoma, in the assay with BT-549 breast, in the assay with NCI/ADR-RES ovarian and in the assay on HCT-15 colon was more than 100 µM in each case. Besides, the TGI in the assay on A549 NSCLC and in the assay with TK-10 renal was more than 100 µM in each case.

Take `COc1c(Br)cc(CC(N)=O)c(O)c1Br`: the TGI with OVCAR-5 ovarian, in the assay with NCI-H226 lung, in the assay with SN12C renal, in the assay on SK-MEL-5 melanoma, in the assay on A549 NSCLC and with TK-10 renal was more than 100 µM each time.

In the case of `COC(=O)C1=Nc2c(C)nn(-c3ccccc3)c2N=C(c2ccc([N+](=O)[O-])cc2)C1`, the TGI in the assay on OVCAR-5 ovarian, with SN12C renal, with SK-MEL-5 melanoma, in the assay on BT-549 breast, in the assay with NCI/ADR-RES ovarian and in the assay with DU-145 prostate was more than 10 µM each time. In addition, the total growth inhibition concentration (TGI) in the assay with HCT-15 colon, with A549 NSCLC and in the assay on TK-10 renal was more than 10 µM in each case.

As for `Cc1cc2ncc3c(=O)n(NS(=O)(=O)c4ccc(N)cc4)ccc3n2n1`, the TGI in the assay on OVCAR-5 ovarian, with NCI-H226 lung, with SN12C renal, in the assay on SK-MEL-5 melanoma, with BT-549 breast and with DU-145 prostate was more than 100 µM in each case. Also, the TGI with HCT-15 colon, in the assay on A549 NSCLC and in the assay with TK-10 renal was more than 100 µM throughout.

Turning to `COc1ccc(-c2c(C#N)c(N)nc3c2CCS(=O)(=O)c2ccccc2-3)cc1`, the TGI with NCI-H226 lung, in the assay on SN12C renal, in the assay with SK-MEL-5 melanoma, in the assay on BT-549 breast, in the assay on NCI/ADR-RES ovarian and in the assay with DU-145 prostate was more than 100 µM in each case. In addition, the TGI in the assay with HCT-15 colon, in the assay on A549 NSCLC and in the assay with TK-10 renal was more than 100 µM throughout.

For `NC(N)=Nc1ncccc1[N+](=O)[O-]`, the TGI with OVCAR-5 ovarian, with NCI-H226 lung, in the assay on SN12C renal, in the assay with SK-MEL-5 melanoma, with NCI/ADR-RES ovarian and in the assay with HCT-15 colon was more than 100 µM throughout. The TGI in the assay on A549 NSCLC was more than 100 µM.
